Reference: patent US9108933B2, “Method for treating proliferative disorders associated with mutations in c-Met” (Synta Pharmaceuticals Corp., priority 2007, dated 2015)
Entries after “also recorded” stand apart in the source; their conditions may differ.

Assays:
[1] = tested on: Hsp90 protein; experiment: Malachite Green assay of ATPase activity of Hsp90 protein; type: biochemical; conditions: 37° C., 4 hours
Experimental: Hsp90 protein was obtained from Stressgen (Cat#SPP-770). Assay buffer: 100 mM Tris-HCl, Ph7.4, 20 mM KCl, 6 mM MgCl2. […] Malachite green reagent was added to the reaction. […] The plate was read by an ELISA reader with an absorbance at 620 nm.

[2] = tested on: Her2; experiment: Degradation of Her2 in BT-474 cells, Western blot (Method 1); type: cell-based, human; conditions: overnight
Experimental: Human high-Her2 breast carcinoma BT474 (HTB-20), SK-BR-3 (HTB-30) and MCF-7 breast carcinoma (HTB-22) from American Type Culture Collection, VA, USA were grown in Dulbecco's modified Eagle's medium with 4 mM L-glutamine and antibiotics (100 IU/ml penicillin and 100 ug/ml streptomycine; GibcoBRL). To obtain exponential cell growth, cells were trypsinized, counted and seeded at a cell density of 0.5×10^6 cells/ml regularly, every 3 days. All experiments were performed on day 1 after cell passage.
After treatment, each cytoplasmic sample was prepared from 1×10^6 cells by incubation of cell lysis buffer (#9803, cell Signaling Technology) on ice for 10 minutes. The resulting supernatant used as the cytosol fractions were dissolved with sample buffer for SDS-PAGE and run on a SDS-PAGE gel, blotted onto a nitrocellulose membrane by using semi-dry transfer. Non-specific binding to nitrocellulose was blocked with 5% skim milk in TBS with 0.5% Tween at room temperature for 1 hour, then probed with anti-Her2/ErB2 mAb (rabbit IgG, #2242, Cell Signaling) and anti-Tubulin (T9026, Sigma) as housekeeping control protein. HRP-conjugated goat antirabbit IgG (H+L) and HRP-conjugated horse anti-mouse IgG (H+L) were used as secondary Ab (#7074, #7076, Cell Signaling) and LumiGLO reagent, 20× Peroxide (#7003, Cell Signaling) was used for visualization.

[3] = tested on: human tumor cell line MDA-MB-435S; experiment: MDA-MB-435S nude mouse xenograft model; type: in vivo; conditions: 300 mg/kg body weight, IP, 5 days per week for 3 weeks
Experimental: FBS was obtained from Sigma-Aldrich Corp. (St. Louis, Mo., USA), and all other reagents were obtained from Invitrogen Corp. (Carlsbad, Calif., USA). Approximately 4-5×10(6) cells that had been cryopreserved in liquid nitrogen were rapidly thawed at 37° C. and transferred to a 175 cm^2 tissue culture flask containing 50 ml of growth media and then incubated at 37° C. in a 5% CO2 incubator. The growth media was replaced every 2-3 days until the flask became 90% confluent, typically in 5-7 days. To passage and expand the cell line, a 90% confluent flask was washed with 10 ml of room temperature phosphate buffered saline (PBS) and the cells were disassociated by adding 5 ml 1× Trypsin-EDTA (Invitrogen) and incubating at 37° C. until the cells detached from the surface of the flask. […] The supernatant was aspirated and the cell pellet was resuspended in 10 ml of growth media and the cell number determined using a hemocytometer. […]
Six to eight week old, female Crl:CD-1-nuBR (nude) mice were obtained from Charles River Laboratories (Wilmington, Mass., USA). […] Tumor volumes (V) were calculated by caliper measurement of the width (W), length (L) and thickness (T) of tumors using the following formula: V=[…]×(L×W×T) Animals were randomized into treatment groups so that the average tumor volumes of each group were similar at the start of dosing. […]

[4] = tested on: mutant c-Met (T1010I) on ACHN human renal cell carcinoma cells; experiment: Flow cytometric analysis of c-Met on the surface of ACHN cells; type: cell-based; conditions: 18 hours, read-out: IC50 for degradation of mutant c-Met
Experimental: (§1) Flow cytometric analysis was used to monitor the degradation of c-Met over-expressed on the surface of the ACHN human renal cell carcinoma cell line which contains the juxtamembrane domain mutation (C3223T: T1010I) and is constitutively active, and the MKN45 which is a c-Met amplified human gastric carcinoma cell line. ACHN and MKN45 cells (5×10^5 cells) were treated with Compound 226, 17-AAG or 17-DMAG for 18 hours. After treatment the cells were stained with FITC conjugated c-MET antibody. The expression of the c-Met cell surface proteins was measured by flow cytometry analysis (see FIG. 4 for ACHN cells and FIG. 5 for MKN45 cells). The IC50 value was determined by XLfit software.

[5] = tested on: c-Met on MKN45 c-Met amplified human gastric carcinoma cells; experiment: Flow cytometric analysis of c-Met on the surface of MKN45 cells; type: cell-based; conditions: MKN-45 cell line, 18 hours; read-out: IC50 for degradation of c-Met
Experimental: as §1

[6] = tested on: MNK45 cell line, c-Met amplified human gastric carcinoma; experiment: Cell survival of MKN45 cells (Cell Counting Kit-8); type: cell-based; conditions: 72 hours
Experimental: MNK45 cell line, (DSMZ #ACC 409), which is a c-Met amplified human gastric carcinoma cell line, was obtained from the Deutsche Sammlung von Mikroorganismen and Zellkulturen GmbH (DSMZ; Braunschweig, Germany). […] MNK45 cells (20,000 cells/well) were cultured in 96-well plates and maintained at 37° C. for several hours. The cells were incubated at 37° C. for 72 hours with various concentrations of compound 226 of the invention, 17AAG, or DMAG. 17AAG and 17DMAG are Hsp90 inhibitors that are currently in clinical trials and are used here as positive controls for Hsp90 inhibition. Cell survival was measured with Cell Counting Kit-8 (Dojindo Laboratories, Cat # CK04).

[7] = tested on: human c-MET amplified gastric carcinoma tumor cell line MKN-45; experiment: MKN-45 nude mouse xenograft model; type: in vivo; conditions: 50 mg/kg body weight, i.v., 3 times per week, 9 doses
Experimental: The human gastric carcinoma cell line, MKN-45 (DSMZ #ACC 409), was obtained from the Deutsche Sammlung von Mikroorganismen and Zellkulturen GmbH (DSMZ; Braunschweig, Germany). […] FBS was obtained from ATCC and all other reagents were obtained from Invitrogen Corp. (Carlsbad, Calif., USA). Cells that had been cryopreserved in liquid nitrogen were rapidly thawed at 37° C. and transferred to a tissue culture flask containing growth media and then incubated at 37° C. in a 5% CO2 incubator. To expand the cell line, growth media was replaced every 2-3 days until the flask became 90% confluent, typically in 5-10 days. Cultures were passaged by washing with 10 mL of room temperature phosphate buffered saline (PBS) and then disassociating cells by adding 5 mL 1× trypsin-EDTA and incubating at 37° C. until the cells detached from the surface of the flask. To inactivate the trypsin, 5 mL of growth media was added and then the contents of the flask were centrifuged to pellet the cells. The supernatant was aspirated and the cell pellet was resuspended in 10 mL of growth media and the cell number determined using a hemocytometer. Approximately 3-6×10(6) cells per flask were seeded into 175 cm^2 flasks containing 50 mL of growth media and incubated at 37° C. in a 5% CO2 incubator. […]
Tumors were then permitted to develop in vivo until the majority reached 100-200 mm^3 in tumor volume, which required ˜2 weeks following implantation. […] Tumor volumes (V) were calculated by caliper measurement of the width (W), length (L) and thickness (T) of tumors using the following formula: V=0.5236×(L×W×T). Animals were randomized into treatment groups so that the average tumor volumes of each group were similar at the start of dosing. % T/C values, as a measure of efficacy, were determined as follows: • (i) If ΔT>0: % T/C=(ΔT/ΔC)×100 • (ii) If ΔT<0: % T/C=(ΔT/T0)×100 • (iii) ΔT=Change in average tumor volume between start of dosing and the end of study. • (iv) ΔC=Change in average tumor volume between start of dosing and the end of study. • (v) T0=Average tumor volume at start of dosing. […]

Structure (SMILES): Oc1ccc(-c2nnc(S)n2-c2cccc3ccccc23)c(O)c1 [Compound 108, 3-(2,4-Dihydroxy-3-phenyl)-4-(naphthalen-1-yl)-5-mercapto-triazole]
- inhibition of ATPase activity of Hsp90 ([1]; 4 μM): significant inhibition
- inhibition of ATPase activity of Hsp90 ([1]; 40 μM): even greater inhibition of ATPase activity of Hsp90 than geldanamycin
- degradation of Her2 ([2]; 0.5 μM): partially degradated
- degradation of Her2 ([2]; 2 μM): partially degradated
- degradation of Her2 ([2]; 5 μM): almost completely degraded

Structure (SMILES): CCc1cc(-c2nnc(S)n2-c2cccc3ccccc23)c(O)cc1O [Compound 49, 3-(2,4-Dihydroxy-5-ethyl-phenyl)-4-(naphthalen-1-yl)-5-mercapto-triazole]
- toxicity (effect on body weights) [3]: not associated with significant toxicity

Structure (SMILES): CC(C)c1cc(-c2nnc(O)n2-c2ccc3c(ccn3C)c2)c(O)cc1O [Compound 226, 3-(2,4-dihydroxy-5-isopropyl-phenyl)-4-(1-methyl-indol-5-yl)-5-hydroxy-[1,2,4] triazole]
- IC50 [4]: 18 nM
- IC50 [5]: 26 nM
- IC50 ([6]; Homo sapiens): 8 nM
- toxicity [7]: not associated with excessive toxicity; also recorded: Overt toxicity was not observed
- % T/C value ([7]; day 36): 8%
- average bodyweight loss relative to the start of the study ([7]; day 36): −3.5%

Structure (SMILES): CO[C@H]1/C=C\C=C(/C)C(=O)NC2=CC(=O)C(NCCN(C)C)=C(C[C@@H](C)C[C@H](OC)[C@H](O)[C@@H](C)/C=C(\C)[C@@H]1OC(N)=O)C2=O [Compound 17-DMAG]
- IC50 [4]: 95 nM
- IC50 [5]: 70 nM
- IC50 [6]: 14 nM

Structure (SMILES): C=CCNC1=C2C[C@@H](C)C[C@H](OC)[C@H](O)[C@@H](C)/C=C(\C)[C@H](OC(N)=O)[C@@H](OC)/C=C\C=C(/C)C(=O)NC(=CC1=O)C2=O [Compound 17-AAG]
- IC50 [4]: 244 nM
- IC50 [5]: 202 nM

Structure (SMILES): C=CCNC1=C2C[C@@H](C)C[C@H](OC)[C@H](O)[C@@H](C)/C=C(\C)[C@H](OC(N)=O)[C@@H](OC)/C=C\C=C(/C)C(=O)NC(=CC1=O)C2=O [Compound 17AAG]
- IC50 [6]: 45 nM
